According to PubChem BioAssay (NCI):
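Method: 48-hour compound exposure of cells in 96-well plates, five concentrations, linear interpolation of endpoints. TGI: total growth inhibition.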 Where a SMILES comes first, the peptide text is derived from it. The star is where a group is joined. Fmoc = O=C(OCC1c2ccccc2-c2ccccc21)*; OBn = c1ccc(CO*)cc1; tBu = CC(C)(C)*

Columns and labels:
Test in all cases: NCI anticancer screen, dose series, 48 h
A549 NSCLC = tested on: A549 NSCLC
DU-145 prostate = tested on: DU-145 prostate
EKVX NSCLC = tested on: EKVX NSCLC
HCT-15 colon = tested on: HCT-15 colon
MDA-N = tested on: MDA-N
NCI-H522 lung = tested on: NCI-H522 lung
OVCAR-4 ovarian = tested on: OVCAR-4 ovarian
OVCAR-5 ovarian = tested on: OVCAR-5 ovarian
SK-MEL-5 melanoma = tested on: SK-MEL-5 melanoma
SNB-19 CNS = tested on: SNB-19 CNS
SR leukemia = tested on: SR leukemia

Structure (SMILES) | TGI (A549 NSCLC) | TGI (DU-145 prostate) | TGI (EKVX NSCLC) | TGI (HCT-15 colon) | TGI (MDA-N) | TGI (NCI-H522 lung) | TGI (OVCAR-4 ovarian) | TGI (OVCAR-5 ovarian) | TGI (SK-MEL-5 melanoma) | TGI (SNB-19 CNS) | TGI (SR leukemia)
CCCCCCCC(=O)OC[n+]1cccc(-c2c(COC(=O)NC(C)C)c(COC(=O)NC(C)C)c3n2CCC3)c1 | > 100 µM | > 100 µM | > 100 µM | > 100 µM | > 100 µM | > 100 µM | > 100 µM | > 100 µM | > 100 µM | > 100 µM | > 100 µM
O=[N+]([O-])/C=C/c1cn(CCCCCCCCn2cc(/C=C/[N+](=O)[O-])c3ccccc32)c2ccccc12 | > 10 µM | > 10 µM | > 10 µM | > 10 µM | > 10 µM | > 10 µM | > 10 µM | > 10 µM | > 10 µM | > 10 µM | > 10 µM
CC(OC(C)(C)C)C(NC(=O)OCC1c2ccccc2-c2ccccc21)C(=O)NC(Cc1ccccc1)C(=O)OCc1ccccc1 (centres undefined) (Fmoc-Thr(tBu)-Phe-OBn; configuration not given here) | > 100 µM | > 100 µM | > 100 µM | > 100 µM | > 100 µM | > 100 µM | > 100 µM | > 100 µM | > 100 µM | > 100 µM | > 100 µM
O=C(Nc1nnc(-c2ccccc2)o1)C(SC(=S)N1CCCC1)c1ccccc1 (centres undefined) | > 100 µM | > 100 µM | 68 µM | > 100 µM | > 100 µM | 77.8 µM | > 100 µM | > 100 µM | 38.2 µM | > 100 µM | > 100 µM
CC1CC[C@@]2(OC1)OC1C[C@H]3[C@@H]4CC=C5C[C@@H](OC6OC(CO)C(OC7OC(CO)C(O)C(O)C7O)C(O)C6OC6OC(C)C(O)C(O)C6O)CC[C@]5(C)[C@H]4CC[C@]3(C)C1[C@@H]2C (some centres undefined) | 2.15 µM | 0.919 µM | 1.13 µM | 6.95 µM | 2.34 µM | 2.93 µM | 5.03 µM | 4.58 µM | 0.977 µM | 3.92 µM | 0.852 µM
C[N+](C)([O-])C12CC3CC(CC(C3)C1)C2 | > 100 µM | > 100 µM | 74.3 µM | > 100 µM | > 100 µM | 65.7 µM | > 100 µM | > 100 µM | > 100 µM | > 100 µM | > 100 µM
COC(=O)c1sc2c(Cl)c(Cl)sc2c1Cl | > 100 µM | > 100 µM | > 100 µM | > 100 µM | > 100 µM | > 100 µM | > 100 µM | > 100 µM | > 100 µM | > 100 µM | > 100 µM
c1ccc(CN2CCC(CNc3ncnc4ccccc34)C2)cc1 (centres undefined) | > 100 µM | > 100 µM | > 100 µM | > 100 µM | > 100 µM | > 100 µM | > 100 µM | > 100 µM | 82 µM | > 100 µM | 65.1 µM
COc1ccc(Nc2nc(N)c(C(=O)c3ccco3)s2)cc1 | > 100 µM | > 100 µM | > 100 µM | > 100 µM | > 100 µM | > 100 µM | > 89.9 µM | > 100 µM | 99.7 µM | > 100 µM | > 33.8 µM
CCOC(=O)C(NC(=O)c1ccccc1)(Nc1ccc(S(=O)(=O)Nc2cc(C)on2)cc1)C(F)(F)F (centres undefined) | > 100 µM | > 100 µM | > 100 µM | > 100 µM | > 100 µM | > 100 µM | > 10 µM | > 100 µM | > 100 µM | > 100 µM | > 100 µM
Cc1c(C)c2c(c(N)c1C#N)C(=O)N(NC(=S)Nc1ccccc1)C2=O | > 100 µM | > 100 µM | > 100 µM | > 100 µM | > 100 µM | > 100 µM | > 100 µM | > 100 µM | > 100 µM | > 100 µM | 83.5 µM
CCOC1OC(C)(C=C(C#N)C#N)CCC1C (centres undefined) | > 100 µM | > 100 µM | > 100 µM | > 71.2 µM | > 100 µM | 39.5 µM | > 100 µM | > 100 µM | > 100 µM | > 100 µM | > 76.2 µM
CCOC(=O)c1c(-c2ccc(Cl)cc2)c(C#N)c(=S)n(C2OC(COC(C)=O)C(OC(C)=O)C(OC(C)=O)C2OC(C)=O)c1C (centres undefined) | > 100 µM | > 100 µM | > 100 µM | > 100 µM | > 100 µM | > 100 µM | > 100 µM | > 100 µM | > 100 µM | > 100 µM | > 100 µM
CC(=O)CCN1CC2CN=NC2(C#N)C1 (centres undefined) | > 100 µM | > 100 µM | > 100 µM | > 100 µM | > 100 µM | > 20.9 µM | > 100 µM | > 100 µM | > 100 µM | > 100 µM | > 100 µM
